Measured values published in ChEMBL document CHEMBL5042492, “Noncovalent CDK12/13 dual inhibitors-based PROTACs degrade CDK12-Cyclin K complex and induce synthetic lethality with PARP inhibitor” (Eur J Med Chem, 2022).

Molecular target: CDK12/Cyclin K (Homo sapiens, UniProt Q9NYV4)
Assay: Inhibition of human CDK12 (696 to 1082 residues) /cyclinK (1 to 300 residues) using ac-YSPTSPpSYSPTSFpS-YSPTSPpSY-[PEG2]-RR-amid peptide as substrate in presence of ATP measured after 2 hrs by ADP-Glo kinase assay
Type: protein-complex assay

Sequence of CDK12/Cyclin K (O75909 whole entry, the tested form may be a part): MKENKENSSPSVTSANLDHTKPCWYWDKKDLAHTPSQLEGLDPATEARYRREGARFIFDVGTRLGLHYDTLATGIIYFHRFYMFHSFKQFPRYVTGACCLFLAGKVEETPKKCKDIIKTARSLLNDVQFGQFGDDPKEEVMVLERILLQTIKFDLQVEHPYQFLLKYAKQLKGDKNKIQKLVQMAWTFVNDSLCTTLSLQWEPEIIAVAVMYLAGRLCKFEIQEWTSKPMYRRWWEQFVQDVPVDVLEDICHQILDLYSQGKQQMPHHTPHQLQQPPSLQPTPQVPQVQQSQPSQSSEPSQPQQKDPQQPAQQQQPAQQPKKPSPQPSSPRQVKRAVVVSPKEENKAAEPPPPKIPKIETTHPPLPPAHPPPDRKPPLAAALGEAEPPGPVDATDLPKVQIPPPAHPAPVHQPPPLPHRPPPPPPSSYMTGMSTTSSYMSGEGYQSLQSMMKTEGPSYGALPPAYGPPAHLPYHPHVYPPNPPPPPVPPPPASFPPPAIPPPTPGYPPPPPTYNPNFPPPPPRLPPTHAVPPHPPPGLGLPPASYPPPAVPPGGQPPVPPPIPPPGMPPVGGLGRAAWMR
Sequence of CDK12/Cyclin K (Q9NYV4 whole entry, the tested form may be a part): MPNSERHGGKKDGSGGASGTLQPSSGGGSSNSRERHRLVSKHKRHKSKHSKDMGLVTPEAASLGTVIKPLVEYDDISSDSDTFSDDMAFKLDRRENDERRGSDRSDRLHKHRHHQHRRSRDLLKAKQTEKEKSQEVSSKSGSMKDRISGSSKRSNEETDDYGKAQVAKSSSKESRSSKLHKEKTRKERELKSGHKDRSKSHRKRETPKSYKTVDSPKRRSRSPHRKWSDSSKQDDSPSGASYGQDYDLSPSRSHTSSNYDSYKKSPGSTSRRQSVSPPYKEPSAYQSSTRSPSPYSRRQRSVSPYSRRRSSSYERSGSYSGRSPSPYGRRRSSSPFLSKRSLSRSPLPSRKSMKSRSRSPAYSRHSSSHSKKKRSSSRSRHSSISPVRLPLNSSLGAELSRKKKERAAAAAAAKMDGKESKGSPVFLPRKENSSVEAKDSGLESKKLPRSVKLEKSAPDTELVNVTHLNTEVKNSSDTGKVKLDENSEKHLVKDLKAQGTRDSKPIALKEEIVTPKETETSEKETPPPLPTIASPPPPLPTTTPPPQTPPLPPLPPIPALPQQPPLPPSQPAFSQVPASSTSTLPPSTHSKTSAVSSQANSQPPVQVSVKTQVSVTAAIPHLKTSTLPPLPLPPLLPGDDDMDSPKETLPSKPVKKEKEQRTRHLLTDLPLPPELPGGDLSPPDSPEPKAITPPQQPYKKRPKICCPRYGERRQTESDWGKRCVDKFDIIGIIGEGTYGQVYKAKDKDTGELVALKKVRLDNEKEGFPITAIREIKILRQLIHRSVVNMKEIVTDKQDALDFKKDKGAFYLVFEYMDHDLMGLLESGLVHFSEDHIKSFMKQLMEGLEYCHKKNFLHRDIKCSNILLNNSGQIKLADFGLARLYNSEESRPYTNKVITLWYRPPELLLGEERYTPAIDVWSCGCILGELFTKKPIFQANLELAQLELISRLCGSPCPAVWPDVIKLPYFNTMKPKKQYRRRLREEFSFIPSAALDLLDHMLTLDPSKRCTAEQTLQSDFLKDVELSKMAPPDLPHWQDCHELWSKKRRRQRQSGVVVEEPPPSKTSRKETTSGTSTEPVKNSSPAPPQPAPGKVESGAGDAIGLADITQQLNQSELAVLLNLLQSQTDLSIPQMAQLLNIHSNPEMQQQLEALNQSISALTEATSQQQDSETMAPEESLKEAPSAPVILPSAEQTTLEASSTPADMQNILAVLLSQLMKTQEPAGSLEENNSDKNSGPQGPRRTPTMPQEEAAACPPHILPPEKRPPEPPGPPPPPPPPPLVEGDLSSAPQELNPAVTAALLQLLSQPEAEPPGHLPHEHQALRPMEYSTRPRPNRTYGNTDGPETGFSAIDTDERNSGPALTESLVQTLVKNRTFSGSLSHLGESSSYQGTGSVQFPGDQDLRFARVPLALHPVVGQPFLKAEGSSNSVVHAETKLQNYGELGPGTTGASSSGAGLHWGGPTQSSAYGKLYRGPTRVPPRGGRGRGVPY

IC50: 411 nM
SMILES: COCCOCCOc1cc2[nH]c(CNc3nc(N4CCOCC4)nc4c3ncn4-c3cnn(C)c3)nc2cc1F
